Data: patent US11028051B2, “Tetrahydroquinoline-based bromodomain inhibitors” (St. Jude Children's Research Hospital, priority 2016, dated 2021)
Like-named read-outs stand apart in the source and are kept apart here.

Legend:
[1] = biological target: T1, BRD2-BD1 (Homo sapiens (Human), UniProt P25440); experiment: isothermal titration calorimetry analysis of binding; conditions: ITC, BRD2(1); read-out: KD (ITC)
Protocol: (§1) b. Isothermal Titration Calorimetry Analysis of Binding to Brd2-BD1 and Brd2-BD2
(§2) Binding of compounds to BRD2 was monitored using an ITC200 (Microcal, Piscataway, N.J.). Either Brd2.1 (74-194) or Brd2.2 (348-455) was dialyzed overnight into a solution containing 50 mM HEPES, pH 7.0 and 150 mM NaCl at 15° C. Enzyme concentrations were determined after dialysis by absorbance at 280 nm using a molar extinction coefficient (ε280) of 25,565 M^−1 cm^−1 (2.1) or 16,055 M^−1 cm^−1 (2.2). Enzyme was diluted in dialysis buffer and 39.6 μL was loaded into the syringe. Compounds were dissolved in the same dialysis buffer and loaded in the cell to a volume of 204 μL. Injections were carried out by serial injections of enzyme; first, 1 injection of 1 μL, followed by 19 incremental injections of 2 μL, at 120 second intervals. Data from the first injection was excluded, due to pre-equilibration mixing between the contents of cell and syringe at the syringe tip. Peak areas were integrated, normalized, and then fitted by non-linear regression using the independent sites model in Origin™ (version 2.3.6, Microcal, Piscataway, N.J.).
Target sequence in this assay (P25440 74-194): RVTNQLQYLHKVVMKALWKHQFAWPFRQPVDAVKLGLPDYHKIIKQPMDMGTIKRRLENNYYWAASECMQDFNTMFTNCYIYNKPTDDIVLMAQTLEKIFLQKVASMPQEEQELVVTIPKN

[2] = biological target: BRD2-BD2 (Homo sapiens (Human), UniProt P25440); experiment: as above; conditions: ITC, BRD2(2); read-out: KD (ITC)
Chain of BRD2-BD2 (P25440 348-455): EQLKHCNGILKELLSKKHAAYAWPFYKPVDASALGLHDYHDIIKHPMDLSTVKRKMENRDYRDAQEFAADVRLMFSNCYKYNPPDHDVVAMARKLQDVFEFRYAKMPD
Protocol: as §1, §2

[3] = biological target: T1, BRD2-BD1; experiment: surface plasmon resonance analysis of binding; conditions: SPR, BRD2(1) (printed MRD2(1))
Protocol: a. Surface Plasmon Resonance (Biacore) Analysis of Binding to Brd2-BD1 and Brd2-BD2
SPR experiments were conducted at 15° C. using a SensiQ Pioneer optical biosensor (SensiQ Technologies). Poly-His tagged BRD2 constructs were immobilized on polycarboxylate-coated gold chips preimmobilized with nitrilotriacetic acid (His-Cap chips; SensiQ Technologies) by capture-coupling, a hybrid method of capture and amine coupling chemistry (Ref. A). The His-Cap chip was preconditioned and charged with Ni^2+ in equilibration buffer (10 mM HEPES pH 7.4, 150 mM NaCl, 50 μM EDTA, 0.005% Tween20) at a flow rate of 10 μL/min. The chip was washed with three 60 s injections of regeneration buffer (10 mM HEPES pH 8.3, 150 mM NaCl, 350 mM EDTA, 0.05% Tween20) and one 60 s injection of equilibration buffer and was charged with a 60 s injection of 500 mM NiCl2 in equilibration buffer, which added ˜55 RU of Ni^2+ per channel. […]
A series of buffer-only (blank) injections was included throughout the experiment to account for instrumental noise. The data were processed, double-referenced, solvent corrected and analyzed using the software package Qdat (version 2.5.3.5, SensiQ Technologies) (Ref B). The kinetic rate constants were determined by globally fitting the data to a 1:1 interaction model. Equilibrium dissociation constants (KD) were calculated as the quotient kd/ka.
Target sequence in this assay (P25440 74-180): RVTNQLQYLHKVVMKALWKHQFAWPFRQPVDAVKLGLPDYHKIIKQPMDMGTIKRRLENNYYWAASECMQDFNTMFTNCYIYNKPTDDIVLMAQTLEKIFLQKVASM

[4] = system: HDMB03 cells; experiment: cell viability, CellTiter-Glo; format: cell-based, human; conditions: Homo sapiens, read-out: EC50 (μM) HDMB03
Procedure, shortened: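 Medulloblastoma cells grown as neurospheres in supplemented neurobasal medium and treated for 7 days; viability read by CellTiter-Glo luminescence. Log10-transformed signal normalized to negative and positive controls; median percent inhibition of triplicates fitted with a four-parameter log-logistic model.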

[5] = system: Loucy; experiment: anti-proliferative activity; format: cell-based; conditions: Table 5
Protocol: (§3) After 7 days of treatment, an equal volume of CellTiter-Glo reagent (G7572, Promega) was added and the luminescence signal was measured using an automated Envision plate reader (Perkin-Elmer). Luminescence data were normalized by log10 transformation prior to calculating the percent inhibition using the following equation:
(§4) 100*(negative control mean −compound value)/(negative control mean −positive control mean).

[6] = system: MV-4-11; experiment: anti-proliferative activity; format: cell-based; conditions: Homo sapiens, MV4-11; Table 7
Protocol: as §3, §4

[7] = system: NALM-16; experiment: anti-proliferative activity; format: cell-based; conditions: NALM16; Table 5
Protocol: as §3, §4

[8] = system: SEM cells; experiment: anti-proliferative activity; format: cell-based; conditions: Table 5
Protocol: as §3, §4

[9] = biological target: BRD2(1) (Homo sapiens (Human), UniProt P25440); experiment: BROMOscan KD determination; format: binding; conditions: Table 10
Chain of BRD2(1) (P25440 74-180): as above
Procedure, shortened: (§5)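 KD figures derive from BROMOscan follow-up determinations. The panel-wide data are single-concentration (1 μM) competitive binding results versus control across ~42 bromodomains.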

[10] = biological target: BRD2(2) (Homo sapiens (Human), UniProt P25440); experiment: BROMOscan KD determination; format: binding
Chain of BRD2(2) (P25440 344-453): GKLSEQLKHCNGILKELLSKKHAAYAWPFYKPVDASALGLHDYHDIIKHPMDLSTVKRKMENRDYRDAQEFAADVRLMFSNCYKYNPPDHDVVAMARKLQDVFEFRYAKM
Procedure, shortened: as §5

[11] = biological target: BRDT(1) (Homo sapiens (Human), UniProt Q58F21); experiment: BROMOscan KD determination; format: binding; conditions: Table 10
Procedure, shortened: as §5

[12] = biological target: BRDT(2) (Homo sapiens (Human), UniProt Q58F21); experiment: BROMOscan KD determination; format: binding
Procedure, shortened: as §5

Kd [1]: 25 nM
Kd [2]: < 1 nM
Kd [3]: 132 nM
EC50 [6]: 0.016 µM
Kd [9]: 24 nM
[2(1)/2(2)] ([10]; BROMOscan KD ratio): 36.9
Kd ([10]; BROMOscan, Table 10): 0.65 nM
Kd [11]: 4.9 nM
T(1)/T(2) ([12]; BROMOscan KD ratio): 1.0
Kd ([12]; BROMOscan, Table 10): 4.9 nM
Compound: COC(=O)c1ccc(N[C@@H]2C[C@H](C)N(C(C)=O)c3ccc(-c4cccc(NC(C)=O)c4)cc32)cc1 [compound 4]
EC50 ([4]; HD-MB03, Table 5): 0.31 µM
EC50 ([4]; HD-MB03, Table 7): 0.75 µM
EC50 ([4]; HD-MB03, Table 9, cancer cell proliferation inhibition): 0.75 µM
EC50 [5]: 0.39 µM
EC50 [7]: 0.35 µM
EC50 [8]: 0.02 µM
